Laboratory results taken from article PMC3348135, “Identification of New Agonists and Antagonists of the Insect Odorant Receptor Co-Receptor Subunit” (PLoS ONE, 2012).

Experiments:
Dmel\Orco [1] = target: T1, Dmel\Orco (Drosophila melanogaster, UniProt Q9VNB5); assay: Agonist activation of homomeric Dmel\Orco in Xenopus oocytes, two-electrode voltage clamp; format: cell-based; settings: for Response amplitude as percentage of response to 100 µM OLC3, Dmel\Orco: 100 µM compound, mean ± SEM, n=3-8
T1 construct: expressed in transfected cells; host or cells: Xenopus laevis oocytes (cRNA injection, pGEMHE)
T1 sequence (Q9VNB5 1-486): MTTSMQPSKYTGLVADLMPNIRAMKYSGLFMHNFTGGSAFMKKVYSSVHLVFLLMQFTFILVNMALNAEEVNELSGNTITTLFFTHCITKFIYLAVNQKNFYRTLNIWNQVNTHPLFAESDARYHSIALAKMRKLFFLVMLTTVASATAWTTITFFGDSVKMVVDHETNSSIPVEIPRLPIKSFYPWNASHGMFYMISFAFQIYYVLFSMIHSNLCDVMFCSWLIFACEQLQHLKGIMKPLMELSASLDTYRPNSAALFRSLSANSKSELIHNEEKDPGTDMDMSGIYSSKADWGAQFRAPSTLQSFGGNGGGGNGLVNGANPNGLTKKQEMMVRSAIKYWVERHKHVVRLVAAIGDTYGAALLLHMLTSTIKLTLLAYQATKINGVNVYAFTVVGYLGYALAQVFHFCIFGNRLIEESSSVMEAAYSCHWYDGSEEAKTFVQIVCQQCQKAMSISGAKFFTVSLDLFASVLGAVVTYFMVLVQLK
Procedure: (§1) Oocytes were surgically removed from mature Xenopus laevis frogs. Follicle cells were removed by treatment with Collagenase B (Boehringer Mannhem) for 2 hours at room temperature. Capped cRNA encoding each DmOR subunit was generated using mMessage mMachine kits (Ambion). For heteromeric ORs, 25 ng of cRNA encoding each OR subunit was injected into Stage V-VI Xenopus oocytes. For expression of Orco alone, 50 ng of cRNA was injected. Oocytes were incubated at 18°C in Barth’s saline (in mM: 88 NaCl, 1 KCl, 2.4 NaHCO3, 0.3 CaNO3, 0.41 CaCl2, 0.82 MgSO4, 15 HEPES, pH 7.6, and 150 µg/ml ceftazidime) for 2–5 days prior to electrophysiological recording.
(§2) Odorant and Orco ligand induced currents were recorded under two-electrode voltage clamp in Xenopus laevis oocytes expressing ORs, using an automated parallel electrophysiology system (OpusExpress 6000A; Molecular Devices). Oocytes were perfused with ND96 (in mM: 96 NaCl, 2 KCl, 1 CaCl2, 1 MgCl2, 5 HEPES, pH 7.5). Odorant stock solutions (0.5 or 1 M) and Orco ligand stock solutions (100 mM) were prepared in DMSO and diluted in ND96. Unless otherwise noted, applications were for 60 sec at a flow rate of 1.0 ml/min, with extensive washing in ND96 (9 or 20 min at 4.6 ml/min) between applications. Micropipettes were filled with 3 M KCl and had resistances of 0.2−2.0 MΩ. The holding potential was −70 mV. Current responses, filtered (4-pole, Bessel, low pass) at 20 Hz (−3 db) and sampled at 100 Hz, were captured and stored using OpusXpress 1.1 software (Molecular Devices).
(§3) Initial analysis of electrophysiological data was done using Clampfit 9.1 software (Molecular Devices). Curve fitting and statistical analyses were done using Prism 5 (Graphpad). Concentration-response data were fit to the equation: I = Imax/(1+(EC50/X)^n) where I represents the current response at a given concentration of odorant, X; Imax is the maximal response; EC50 is the concentration of agonist yielding a half maximal response; n is the apparent Hill coefficient. Concentration-inhibition data were fit to the equation: I = Imax/(1+(X/IC50)^n) where I represents the current response at a given concentration of inhibitor, X; Imax is the maximal response in the absence of inhibitor; IC50 is the concentration of inhibitor present that still allows a half maximal response from odorant; n is the apparent Hill coefficient. Statistical significance was assessed using a two-tailed unpaired t test, an F test, or a one-way analysis of variance followed by the Bonferroni’s post-test, as appropriate.

Cqui\Orco = assay: Agonist activation of homomeric Cqui\Orco in Xenopus oocytes, two-electrode voltage clamp; format: cell-based, Culex quinquefasciatus; settings: 100 µM compound; mean ± SEM, n=3-8
Cqui\Orco + Cqui\Or10 = Cqui\Orco + Cqui\Or10 (Culex quinquefasciatus, UniProt D5LMR7+Q309I4); assay: Activation of Cqui\Orco + Cqui\Or10 in Xenopus oocytes, two-electrode voltage clamp; format: cell-based; settings: 100 µM compound, mean ± SEM, n=3-8
Sequence of Cqui\Orco + Cqui\Or10 (D5LMR7 entry or part of it): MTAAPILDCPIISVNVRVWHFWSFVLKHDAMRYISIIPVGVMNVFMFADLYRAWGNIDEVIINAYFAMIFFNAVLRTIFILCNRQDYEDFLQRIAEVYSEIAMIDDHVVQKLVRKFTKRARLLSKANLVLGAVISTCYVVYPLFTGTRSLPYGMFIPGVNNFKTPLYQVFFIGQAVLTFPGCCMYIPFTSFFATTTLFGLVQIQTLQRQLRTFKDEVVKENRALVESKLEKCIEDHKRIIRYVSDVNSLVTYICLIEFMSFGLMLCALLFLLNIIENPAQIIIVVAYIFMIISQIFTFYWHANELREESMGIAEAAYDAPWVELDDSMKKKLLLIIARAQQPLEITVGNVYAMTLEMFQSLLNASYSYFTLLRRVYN
Sequence of Cqui\Orco + Cqui\Or10 (Q309I4 entry or part of it): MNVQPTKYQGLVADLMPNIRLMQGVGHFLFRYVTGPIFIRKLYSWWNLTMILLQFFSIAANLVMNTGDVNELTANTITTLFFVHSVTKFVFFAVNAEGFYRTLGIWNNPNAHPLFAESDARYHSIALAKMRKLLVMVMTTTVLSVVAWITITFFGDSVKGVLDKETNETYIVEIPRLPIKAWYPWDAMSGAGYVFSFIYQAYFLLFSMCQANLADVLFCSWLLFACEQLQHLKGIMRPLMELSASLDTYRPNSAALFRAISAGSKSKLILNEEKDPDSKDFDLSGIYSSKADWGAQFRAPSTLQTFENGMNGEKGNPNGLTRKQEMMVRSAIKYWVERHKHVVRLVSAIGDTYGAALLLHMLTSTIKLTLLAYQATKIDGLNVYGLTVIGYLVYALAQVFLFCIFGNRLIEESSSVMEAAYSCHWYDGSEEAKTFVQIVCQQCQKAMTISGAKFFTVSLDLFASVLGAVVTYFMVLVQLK
Procedure: as §1, §2, §3

Onub\Orco + Onub\Or1 = assay: Agonist activation of Onub\Orco + Onub\Or1 in Xenopus oocytes, two-electrode voltage clamp; format: cell-based, Ostrinia nubilalis; settings: 100 µM compound; mean ± SEM, n=3-8
Dmel\Orco + Dmel\Or35a [2] = target: T2, Dmel\Orco + Dmel\Or35a (Drosophila melanogaster, UniProt Q9VNB5); assay: Agonist activation of Dmel\Orco + Dmel\Or35a in Xenopus oocytes, two-electrode voltage clamp; format: cell-based; settings: for Response amplitude as percentage of response to 100 µM OLC3, Dmel\Orco + Dmel\Or35a: 100 µM compound, mean ± SEM, n=3-8
T2 construct: expressed in transfected cells; host or cells: Xenopus laevis oocytes (cRNA injection, pGEMHE)
T2 sequence (Q9VNB5 1-486): T1 sequence (Q9VNB5 1-486)
T2 sequence (Q9V3Q2 1-409 partner): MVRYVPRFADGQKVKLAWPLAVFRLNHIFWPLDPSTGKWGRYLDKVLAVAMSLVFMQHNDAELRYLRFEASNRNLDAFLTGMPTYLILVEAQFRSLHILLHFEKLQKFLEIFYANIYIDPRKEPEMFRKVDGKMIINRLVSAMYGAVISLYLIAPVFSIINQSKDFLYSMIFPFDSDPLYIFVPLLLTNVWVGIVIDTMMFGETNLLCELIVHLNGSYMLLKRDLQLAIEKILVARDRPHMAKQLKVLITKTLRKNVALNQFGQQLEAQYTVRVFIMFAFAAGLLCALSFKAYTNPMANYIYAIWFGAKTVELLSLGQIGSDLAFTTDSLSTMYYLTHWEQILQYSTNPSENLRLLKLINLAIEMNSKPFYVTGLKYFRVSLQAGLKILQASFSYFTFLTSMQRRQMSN
Procedure: as §1, §2, §3

Dmel\Orco [3] = target: T1, Dmel\Orco; assay: Inhibition of OLC12 activation of Dmel\Orco in Xenopus oocytes; format: cell-based
Procedure: as §1, §2
(§4) In inhibition assays, oocytes were exposed to 60 sec applications of OLC12 with 9 min washes between applications (Fig. 3 and 4) or 60 sec applications of odorant with 20 min washes between applications (Fig. 5). Oocytes were then exposed to a 90 sec application of antagonist candidate, immediately followed by a 60 sec co-application of antagonist candidate and OLC12 or odorant. Oocytes were then exposed to a final 60 sec application of OLC12 or odorant. The current response in the presence of antagonist candidate was compared to the preceding response(s) to OLC12 (or odorant) alone.
as §3

Dmel\Orco + Dmel\Or35a [4] = target: T2, Dmel\Orco + Dmel\Or35a; assay: Inhibition of OLC12 activation of Dmel\Orco + Dmel\Or35a in Xenopus oocytes; format: cell-based; settings: activated by 10 µM OLC12 (EC25); read-out: IC50, Dmel\Orco + Dmel\Or35a (activated by 10 µM OLC12)
Procedure: as §1, §2, §4, §3

Compound	Response amplitude as percentage of response to 100 µM OLC3, Dmel\Orco (Dmel\Orco [1]) [%]	Response amplitude as percentage of response to 100 µM OLC3, Cqui\Orco (Cqui\Orco) [%]	Response amplitude as percentage of response to 100 µM OLC3, Cqui\Orco + Cqui\Or10 (Cqui\Orco + Cqui\Or10) [%]	Response amplitude as percentage of response to 100 µM OLC3, Onub\Orco + Onub\Or1 (Onub\Orco + Onub\Or1) [%]	Response amplitude as percentage of response to 100 µM OLC3, Dmel\Orco + Dmel\Or35a (Dmel\Orco + Dmel\Or35a [2]) [%]	Inhibition of activation of Dmel\Orco by 30 µM OLC12 on co-application (Dmel\Orco [3]; 100 µM compound co-applied with 30 µM OLC12)	IC50 (Dmel\Orco [3]; activated by 30 µM OLC12 (EC39)) [µM]	Emax at 100 µM (Dmel\Orco [1]; read-out: Response amplitude as percentage of response to 100 µM OLC3, Dmel\Orco) [%]	Emax at 100 µM (Cqui\Orco + Cqui\Or10; read-out: Response amplitude as percentage of response to 100 µM OLC3, Cqui\Orco + Cqui\Or10) [%]	IC50 (Dmel\Orco + Dmel\Or35a [4]) [µM]	Emax at 100 µM (Dmel\Orco + Dmel\Or35a [2]; read-out: Response amplitude as percentage of response to 100 µM OLC3, Dmel\Orco + Dmel\Or35a) [%]
CCc1ccc(NC(=O)CSc2nnc(-c3cnccn3)n2CC)cc1 [OLC4]	0	0	0	4 ± 2	4 ± 1						
CCn1c(SCC(=O)Nc2ccc(C)cc2)nnc1-c1cccnc1 [OLC5]	0	0	16 ± 2	4 ± 2	4 ± 1						
CCn1c(SCC(=O)Nc2cccc(C)c2)nnc1-c1cccnc1 [OLC6]	0	4 ± 2	0	0	0						
CCn1c(SCC(=O)Nc2ccc(OC)cc2)nnc1-c1cccnc1 [OLC7]	0	4 ± 2	4 ± 1	0	4 ± 1						
CCc1ccccc1NC(=O)CSc1nnc(-c2cccnc2)n1CC [OLC8]	0	5 ± 3	0	0	0	fails to block					
CCn1c(SCC(=O)Nc2ccc(Br)cc2)nnc1-c1cccnc1 [OLC10]	0	0	27 ± 16		25 ± 7						
CCn1c(SCC(=O)Nc2ccc(Cl)cc2)nnc1-c1cccnc1 [OLC11]	0	0	13 ± 3		13 ± 2						
CCn1c(SCC(=O)Nc2ccc(C)c(C)c2)nnc1-c1ccncc1 [OLC13]	0	0	0		0						
CCn1c(SCC(=O)Nc2ccc(N(C)C)cc2)nnc1-c1ccncc1 [OLC14]		0					25 ± 4	0	12 ± 2	81 ± 23	2 ± 1
Sc1nnc(-c2cccnc2)[nH]1 [OLC16]	0	3 ± 2	0		0						
C=CCn1c(S)nnc1-c1cccnc1 [OLC17]	0	3 ± 2	0		0						
Cn1cnnc1-c1ccncc1 [OLC18]	0	0	0		0						
CCc1ccc(NC(C)=O)cc1 [OLC19]	0	3 ± 2	0		0						
CC(C)c1ccc(NC(=O)CSc2nnnn2C)cc1 [OLC21]	0	0	0		0						
Cc1nnc(-c2ccccn2)[nH]1 [OLC23]	0	0	8 ± 3		0						
